# From patent publication US9937220B2, “Anti-diabetic nutraceutical composition from palm leaf extract” (priority 2009, dated 2018)
# System: STZ-induced diabetic rats
# Assay: Body weight of STZ-induced diabetic rats
# Type: in vivo, rat
# Conditions: glibenclamide treated group (30 mg/kg)
# Protocol: Adult normal and streptozotocin-induced diabetic male Sprague Dawley rats were randomly divided into groups. Palm leaf aqueous and alcoholic extracts (PLE) were fed to normal and STZ-induced diabetic rats at 50-200 mg/kg for 8 weeks. Blood sugar levels from fasting rats were monitored weekly. Untreated rats were used as negative control and glibenclamide (30 mg/kg) treated rats used as positive control.
compound,measurement,value
COc1ccc(Cl)cc1C(=O)NCCc1ccc(S(=O)(=O)NC(=O)NC2CCCCC2)cc1 [glibenclamide],changes in body weight,Significant changes in body weight
